Key:
pigweed = assay: Test B pre/postemergence pigweed; format: in vivo, Amaranthus retroflexus
Outline: (§1)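 Test chemicals in a non-phytotoxic solvent mixture with surfactant were sprayed preemergence onto planted seeds and postemergence onto plants 2 to 18 cm tall (1- to 4-leaf stage). After twelve to sixteen days in a greenhouse, injury was visually rated against untreated controls from 0 (no effect) to 10 (complete control).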

rice = assay: Test B flood test rice; format: in vivo, Oryza sativa
Outline: (§2)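 Read-out is a visual response score from 0 (no effect) to 10 (complete control), assigned by comparison with untreated controls. Treatment was applied at the 2-leaf stage, and plants stayed in the greenhouse for twelve to sixteen days before scoring.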

duck salad = assay: Test B flood test duck salad; format: in vivo, Heteranthera limosa
Outline: as §2

sugar beet = assay: Test B pre/postemergence sugar beet; format: in vivo, Beta vulgaris; details: Preemergence
Outline: as §1

wild oat = assay: Test B pre/postemergence wild oat; format: in vivo, Avena fatua; details: Preemergence
Outline: as §1

bedstraw = assay: Test B pre/postemergence bedstraw; format: in vivo, Galium aparine
Outline: as §1

corn = assay: Test B pre/postemergence corn; format: in vivo, Zea mays
Outline: as §1

soybean = assay: Test B pre/postemergence soybean; format: in vivo, Glycine max; details: Preemergence
Outline: as §1

purple nutsedge = assay: Test B pre/postemergence purple nutsedge; format: in vivo, Cyperus rotundus; details: Postemergence
Outline: as §1

wheat = assay: Test B pre/postemergence wheat; format: in vivo, Triticum aestivum; details: Preemergence
Outline: as §1

cocklebur = assay: Test B pre/postemergence cocklebur; format: in vivo, Xanthium strumarium
Outline: as §1

morningglory = assay: Test B pre/postemergence morningglory; format: in vivo, Ipomoea hederacea
Outline: as §1

bamyardgrass = assay: Test B flood test barnyardgrass; format: in vivo, Echinochloa crus-galli
Outline: as §2

velvetleaf = assay: Test B pre/postemergence velvetleaf; format: in vivo, Abutilon theophrasti; details: Preemergence
Outline: as §1

rape = assay: Test B pre/postemergence rape; format: in vivo, Brassica napus
Outline: as §1

smallflower flatsedge = assay: Test B flood test smallflower flatsedge; format: in vivo, Cyperus difformis
Outline: as §2

surinam grass = assay: Test B pre/postemergence surinam grass; format: in vivo, Brachiaria decumbens
Outline: as §1

giant foxtail = assay: Test B pre/postemergence giant foxtail; format: in vivo, Setaria faberii
Outline: as §1

blackgrass = assay: Test B pre/postemergence blackgrass; format: in vivo, Alopecurus myosuroides
Outline: as §1

crabgrass = assay: Test B pre/postemergence crabgrass; format: in vivo, Digitaria sanguinalis
Outline: as §1

[1] = Preemergence, Rate 31 g/ha, visual rating, scale 0 to 10 (0 no effect, 10 complete control)
[2] = Preemergence, Rate 62 g/ha, scale of 0 to 10 where 0 is no effect and 10 is complete control
[3] = Preemergence, Rate 250 g/ha, scale of 0 to 10 where 0 is no effect and 10 is complete control
[4] = Rate 31 g/ha, Postemergence, scale 0 to 10
[5] = Rate 125 g/ha, Preemergence, scale of 0 to 10 where 0 is no effect and 10 is complete control
[6] = Rate 62 g/ha, headed Pre-emergence (flood test species), scale 0 to 10 (0 no effect, 10 complete control)
[7] = Rate 125 g/ha, Pre-emergence, flood test species, scale 0 to 10 where 0 is no effect and 10 is complete control
[8] = Rate 250 g/ha, Pre-emergence, flood-test species, scale 0 to 10, 0 is no effect, 10 is complete control
[9] = Rate 500 g/ha, Pre-emergence, flood test species, scale 0 to 10 (0 no effect, 10 complete control)
[10] = Rate 31 g/ha, visual rating, scale 0 to 10 (0 no effect, 10 complete control)
[11] = Rate 62 g/ha, scale of 0 to 10 where 0 is no effect and 10 is complete control
[12] = Rate 250 g/ha, scale of 0 to 10 where 0 is no effect and 10 is complete control
[13] = Rate 125 g/ha, scale of 0 to 10 where 0 is no effect and 10 is complete control
[14] = Rate 62 g/ha, Postemergence, scale of 0 to 10 where 0 is no effect and 10 is complete control
[15] = Rate 125 g/ha, Postemergence, scale 0 to 10

CCC(=O)Cn1c(=O)on(C(=O)N(c2ccc(F)cc2)C(C)C)c1=O [Compound 252]
4: Plant response rating (0 to 10; 0 is no effect, 10 is complete control), Giant foxtail (giant foxtail; Rate 250 g/ha, Postemergence) | Blackgrass plant response rating (blackgrass; [3]) | Crabgrass plant response rating (crabgrass; [3])
9: Giant foxtail plant response rating (giant foxtail; [5])
0: Redroot pigweed plant response rating (pigweed; [1]) | Redroot pigweed plant response rating (pigweed; [2]) | Redroot pigweed plant response rating (pigweed; [3]) | Redroot pigweed plant response rating (pigweed; [4]) | Redroot pigweed plant response rating (pigweed; [5]) | Plant response rating (0 to 10; 0 is no effect, 10 is complete control), Redroot pigweed (pigweed; Rate 250 g/ha, Postemergence) | Rice plant response rating (rice; [6]) | Rice plant response rating (rice; [7]) | Rice plant response rating (rice; [8]) | Rice plant response rating (rice; [9]) | Ducksalad plant response rating (duck salad; [6]) | Ducksalad plant response rating (duck salad; [7]) | Ducksalad plant response rating (duck salad; [8]) | Ducksalad plant response rating (duck salad; [9]) | Sugarbeets plant response rating (sugar beet; [10]) | Sugarbeets plant response rating (sugar beet; [11]) | Wild oats plant response rating (wild oat; [10]) | Wild oats plant response rating (wild oat; [11]) | Wild oats plant response rating (wild oat; [13]) | Bedstraw plant response rating (bedstraw; [1]) | Bedstraw plant response rating (bedstraw; [2]) | Bedstraw plant response rating (bedstraw; [3]) | Bedstraw plant response rating (bedstraw; [4]) | Bedstraw plant response rating (bedstraw; [14]) | Bedstraw plant response rating (bedstraw; [15]) | Bedstraw plant response rating (bedstraw; [5]) | Plant response rating (0 to 10; 0 is no effect, 10 is complete control), Bedstraw (bedstraw; Rate 250 g/ha, Postemergence) | Corn plant response rating (corn; [1]) | Corn plant response rating (corn; [2]) | Corn plant response rating (corn; [3]) | Corn plant response rating (corn; [4]) | Corn plant response rating (corn; [14]) | Corn plant response rating (corn; [15]) | Corn plant response rating (corn; [5]) | Plant response rating (0 to 10; 0 is no effect, 10 is complete control), Corn (corn; Rate 250 g/ha, Postemergence) | Soybean plant response rating (soybean; [10]) | Soybean plant response rating (soybean; [11]) | Soybean plant response rating (soybean; [12]) | Soybean plant response rating (soybean; [13]) | Nutsedge plant response rating (purple nutsedge; Rate 31 g/ha, scale 0 to 10) | Plant response rating (0 to 10; 0 is no effect, 10 is complete control), Nutsedge (purple nutsedge; Rate 250 g/ha) | Wheat plant response rating (wheat; [10]) | Wheat plant response rating (wheat; [11]) | Wheat plant response rating (wheat; [13]) | Cocklebur plant response rating (cocklebur; [1]) | Cocklebur plant response rating (cocklebur; [2]) | Cocklebur plant response rating (cocklebur; [4]) | Cocklebur plant response rating (cocklebur; [14]) | Cocklebur plant response rating (cocklebur; [15]) | Cocklebur plant response rating (cocklebur; [5]) | Plant response rating (0 to 10; 0 is no effect, 10 is complete control), Cocklebur (cocklebur; Rate 250 g/ha, Postemergence) | Morningglory plant response rating (morningglory; [1]) | Morningglory plant response rating (morningglory; [2]) | Morningglory plant response rating (morningglory; [3]) | Morningglory plant response rating (morningglory; [5]) | Barnyardgrass plant response rating (bamyardgrass; [6]) | Barnyardgrass plant response rating (bamyardgrass; [7]) | Barnyardgrass plant response rating (bamyardgrass; [8]) | Barnyardgrass plant response rating (bamyardgrass; [9]) | Velvetleaf plant response rating (velvetleaf; [10]) | Velvetleaf plant response rating (velvetleaf; [11]) | Velvetleaf plant response rating (velvetleaf; [13]) | Rape plant response rating (rape; [1]) | Rape plant response rating (rape; [2]) | Rape plant response rating (rape; [4]) | Rape plant response rating (rape; [5]) | Plant response rating (0 to 10; 0 is no effect, 10 is complete control), Rape (rape; Rate 250 g/ha, Postemergence) | S. Flatsedge plant response rating (smallflower flatsedge; [6]) | S. Flatsedge plant response rating (smallflower flatsedge; [7]) | S. Flatsedge plant response rating (smallflower flatsedge; [8]) | S. Flatsedge plant response rating (smallflower flatsedge; [9]) | B. signalgrass plant response rating (surinam grass; [1]) | B. signalgrass plant response rating (surinam grass; [2]) | B. signalgrass plant response rating (surinam grass; [3]) | B. signalgrass plant response rating (surinam grass; [4]) | B. signalgrass plant response rating (surinam grass; [14]) | B. signalgrass plant response rating (surinam grass; Rate 125 g/ha, Postemergence, scale 0 (no effect) to 10 (complete control)) | B. signalgrass plant response rating (surinam grass; [5]) | Plant response rating (0 to 10; 0 is no effect, 10 is complete control), B. signalgrass (surinam grass; Rate 250 g/ha, Postemergence) | Giant foxtail plant response rating (giant foxtail; [4]) | Blackgrass plant response rating (blackgrass; [1]) | Blackgrass plant response rating (blackgrass; [2]) | Blackgrass plant response rating (blackgrass; [4]) | Blackgrass plant response rating (blackgrass; [14]) | Crabgrass plant response rating (crabgrass; [1]) | Crabgrass plant response rating (crabgrass; [2]) | Crabgrass plant response rating (crabgrass; [4])
3: Sugarbeets plant response rating (sugar beet; [12]) | Sugarbeets plant response rating (sugar beet; [13]) | Wild oats plant response rating (wild oat; [12]) | Plant response rating (0 to 10; 0 is no effect, 10 is complete control), Morningglory (morningglory; Rate 250 g/ha, Postemergence) | Rape plant response rating (rape; [3]) | Giant foxtail plant response rating (giant foxtail; [1]) | Giant foxtail plant response rating (giant foxtail; [2])
5: Plant response rating (0 to 10; 0 is no effect, 10 is complete control), Blackgrass (blackgrass; Rate 250 g/ha, Postemergence)
2: Wheat plant response rating (wheat; [12]) | Morningglory plant response rating (morningglory; [4]) | Velvetleaf plant response rating (velvetleaf; [12]) | Blackgrass plant response rating (blackgrass; [15]) | Blackgrass plant response rating (blackgrass; [5]) | Crabgrass plant response rating (crabgrass; [5])
6: Plant response rating (0 to 10; 0 is no effect, 10 is complete control), Crabgrass (crabgrass; Rate 250 g/ha, Postemergence)
10: Giant foxtail plant response rating (giant foxtail; [3])
